# Assay results published in article PMC5007466, “VCP recruitment to mitochondria causes mitophagy impairment and neurodegeneration in models of Huntington's disease” (Nature Communications, 2016).
# Columns and labels:
# [1] = tested on: YAC128 mice; assay: Rotarod performance; assay type: in vivo, mouse; conditions: YAC128, 3 mg/kg/day from 3 months; from 6 to 12 months of age, n=15–20
# Text: YAC128 (FVB-Tg(YAC128)53Hay/J, JAX stock number: 004938) breeders (FVB/N genetic background) were purchased from Jackson Laboratories. The YAC128 mice contain a full-length human huntingtin gene modified with a 128 CAG repeat expansion in exon 1. The mice were mated, bred and genotyped in the animal facility of Case Western Reserve University. Male mice at the ages of 2, 3, 6, 9 and 12 months were used in the study.
# (§1) YAC128 mice (Tg) and their age-matched wt littermates were implanted with an osmotic pump containing TAT control peptide or HV-3 peptide (3 mg/kg/day, each) starting from the age of 3 months. The pump was replaced once every month. By the age of 12 months, the treatments were terminated and the mouse samples were harvested for analysis.
# The motor coordination and balance of YAC128 mice were tested on an accelerating Rotarod (IITC Life Sciences, Serials 8) at the ages of 2, 3, 6, 9 and 12 months. Training and baseline testing for motor function tasks were conducted at 2 months of age. For training, mice were given three 120-s trials per day at a fixed-speed of 15 r.p.m. for three consecutive days. During the testing phase, the Rotarod accelerated from 5 to 40 r.p.m. over 3 min; the maximum score was 300 s. Rotarod scores were the average of three trials per day (with 2 h rest between trials) for 3 consecutive days.
# [2] = tested on: wt mice (R6/2 littermates); assay: Motor ability, body weight, life span of wt littermates; assay type: in vivo, mouse; conditions: 3 mg kg^−1 per day, 5–13 weeks of age
# Description: Male hemizygous R6/2 mice (Tg) and their age-matched wt littermates (5-week-old) were implanted with a 28-day osmotic pump (Alzet, Cupertino CA) containing TAT control peptide or HV-3 peptide, which delivered peptides to the mice at a rate of 3 mg kg^−1 per day. The first pump was implanted subcutaneously in the back of 5-week-old mice between the shoulders and replaced once, after 4 weeks.
# (§2) Gross locomotor activity was assessed in R6/2 mice and age-matched wt littermates at the ages of 13 weeks and in YAC128 mice and age-matched wt littermates at the ages of 2, 3, 6, 9, and 12 months. In an activity chamber (Omnitech Electronics, Inc), mice were placed in the center of the chamber and allowed to explore while being tracked by an automated beam system (Vertax, Omnitech Electronics Inc). Distance moved, horizontal, vertical, and rearing activities were recorded. Because R6/2 mice were sensitive to changes in environment and handling, we only conducted one-hour locomotor activity analysis for R6/2 mice and wt littermates. We performed 24 h of locomotor activity analysis for YAC128 mice and their wt littermates.
# The body weight and survival rate of HD mice and wt littermates were recorded throughout the study period.
# [3] = tested on: HdhQ111 mouse striatal cells; assay: HMGB1 release after serum withdrawal; assay type: cell-based; conditions: 24 h serum withdrawal, 3 μM
# Description: HdhQ7 and Q111 mouse striatal cells were treated with the HV-3 peptide or the control peptide TAT (3 μM, each) in an FBS-free DMEM medium or in DMEM containing 10% serum for 24 h. Medium from the cultured cells was harvested. Proteins from the medium were purified using Amicon Ultra 0.5 ml centrifugal filters (Millipore). HMGB1 release into the medium was then analysed by Western blotting with anti-HMGB1 antibody. In parallel, cell death was determined by measuring LDH release into the culture medium, using LDH-Cytotoxicity Assay Kit II (Roche, USA) by following the manufacturer's instruction.
# [4] = tested on: R6/2 mice; assay: VCP mitochondrial level, R6/2 mouse striatum; assay type: in vivo; conditions: R6/2, 3 mg kg^−1 per day from 5 to 9 weeks versus TAT, n=6
# Description: Cells were washed with cold PBS and incubated on ice for 30 min in a lysis buffer (250 mM sucrose, 20 mM HEPES-NaOH, pH 7.5, 10 mM KCl, 1.5 mM MgCl2, 1 mM EDTA, protease inhibitor cocktail and phosphatase inhibitor cocktail). Mouse brains were minced and homogenized in the lysis buffer and then placed on ice for 30 min. Collected cells or tissue were disrupted 20 times by repeated aspiration through a 25-gauge needle, followed by a 30-gauge needle. The homogenates were spun at 800 g for 10 min at 4 °C, and the resulting supernatants were spun at 10,000 g for 20 min at 4 °C. The pellets were washed with lysis buffer and spun at 10,000 g again for 20 min at 4 °C. The final pellets were suspended in lysis buffer containing 1% Triton X-100 and were mitochondrial-rich lysate fractions. The supernatant was centrifuged at 100,000 g, 4 °C, for 1 h, the pellets were suspended in lysis buffer containing 1% Triton X-100 as ER fractions. The final supernatant was cytosolic fractions. The mitochondrial proteins VDAC, the ER protein WFS1 and the cytosolic protein Enolase were used as loading controls for mitochondrial, ER and cytosolic fractions, respectively.
# Male R6/2 mice and their wt littermates (4 weeks old) were purchased from Jackson Laboratories (Bar Harbor, ME; B6CBA-TgN (HD exon 1)62; JAX stock number: 006494). […]
# Protein concentrations were determined by Bradford assay. […]
# [5] = tested on: interaction of mtHtt with Tim23; assay: Co-immunoprecipitation mtHtt/Tim23; assay type: cell-based; conditions: HV-3 treatment; total cell lysates, IP/WB
# Description: (b) Stick drawings of VCP and Htt main domains. […] Immunoprecipitates were analysed by WB with the indicated antibodies. […] VCP mitochondrial levels were determined by WB. Loading control: VDAC. Data are mean±s.e.m. (g–i) ANOVA with Holm-Sidak post hoc test.
# [6] = tested on: wt mice (YAC128 littermates); assay: Motor activity of wt littermates of YAC128; assay type: in vivo, mouse; conditions: 3 to 12 months of age, 3 mg/kg/day
# Description: as §1, §2
# The motor coordination and balance of YAC128 mice were tested on an accelerating Rotarod (IITC Life Sciences, Serials 8) at the ages of 2, 3, 6, 9 and 12 months. Training and baseline testing for motor function tasks were conducted at 2 months of age. […]
compound,measurement,setting,value
CSCC[C@H](NC(=O)[C@@H](NC(=O)[C@H](CC(C)C)NC(=O)[C@@H](NC(=O)[C@H](Cc1c[nH]cn1)NC(=O)CCCCCNC(=O)[C@H](CCCNC(=N)N)NC(=O)[C@H](CCCNC(=N)N)NC(=O)[C@H](CCCNC(=N)N)NC(=O)[C@H](CCC(N)=O)NC(=O)[C@H](CCCNC(=N)N)NC(=O)[C@H](CCCNC(=N)N)NC(=O)[C@H](CCCCN)NC(=O)[C@H](CCCCN)NC(=O)[C@H](CCCNC(=N)N)NC(=O)CNC(=O)[C@@H](N)Cc1ccc(O)cc1)C(C)C)C(C)C)C(=O)N[C@@H](CS)C(=O)N[C@@H](C)C(=O)N[C@H](C(N)=O)[C@@H](C)O [HV-3],rotarod performance,[1],improved general movement activity and rotarod performance
same,"motor ability, body weight, life span of wt mice",[2],"no effects on motor ability, body weight, or life span in wt mice"
same,HMGB1 release,[3],reduced the release of high mobility group box 1 (HMGB1)
same,VCP translocation to mitochondria in striatum,[4],suppressed the VCP translocation to mitochondria
same,interaction of mtHtt with Tim23,[5],did not influence the interaction of mtHtt with Tim23
same,motor activity of wt mice,[6],did not affect motor activity in wt mice
